Assay results from ChEMBL document CHEMBL1201862, “PubChem BioAssay data set” (2004).
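In this assay, cells in 96-well plates receive the compound at five concentrations for 48 hours. Endpoints are linearly interpolated between the surrounding concentrations. Here, GI50 denotes the concentration required for 50% inhibition of growth.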 The source made the active and inactive calls. Cut-off read from the data, not from the text of the source: active = GI50 up to about 1.1 µM and inactive = higher. Non-standard residues stand in square brackets, D forms with d. Residues, ends and D or L forms follow the SMILES beside them. ξ: configuration not given here. *: point of attachment. NMeY = CN[C@@H](Cc1ccc(O)cc1)C(=O)O; Cbz = O=C(OCc1ccccc1)*; ξA = CC(N)C(=O)O

How the values were obtained:
Assay in all cases: DTP human tumour cell line panel, 48 h
[1] = test system: OVCAR-8
[2] = test system: COLO 205
[3] = test system: OVCAR-5
[4] = test system: BT-549
[5] = test system: TK-10
[6] = test system: T47D
[7] = test system: MCF7
[8] = test system: OVCAR-4
[9] = test system: KM12
[10] = test system: M14
[11] = test system: HCC 2998
[12] = test system: A549
[13] = test system: NCI/ADR-RES
[14] = test system: HOP-92
[15] = test system: SK-MEL-5
[16] = test system: SNB-19
[17] = test system: UACC-257
[18] = test system: NCI-H23
[19] = test system: LOX IMVI

Measured: GI50

COc1ccc(CNc2cc(=O)n(C)c(=O)[nH]2)cc1
inactive: [1] > 100 µM | [2] > 100 µM | [3] > 100 µM | [4] > 100 µM | [5] > 100 µM | [6] > 100 µM | [7] > 100 µM | [8] > 100 µM | [9] > 100 µM | [10] > 100 µM | [11] > 100 µM | [12] > 100 µM | [13] > 100 µM | [14] > 100 µM | [15] > 100 µM | [16] > 100 µM | [17] > 100 µM | [18] > 100 µM | [19] > 100 µM

CO[C@]12C[C@H](CNC(=O)c3cc(Br)c(Br)[nH]3)O[C@H]1NC(=O)N2
inactive: [1] > 100 µM | [2] > 100 µM | [3] > 100 µM | [4] > 100 µM | [5] > 100 µM | [6] > 100 µM | [7] > 100 µM | [8] > 100 µM | [9] > 100 µM | [10] > 100 µM | [11] > 100 µM | [12] > 100 µM | [13] > 100 µM | [14] 25.2 µM | [15] > 100 µM | [16] > 100 µM | [17] > 100 µM | [18] > 100 µM | [19] > 100 µM

Cc1csc2c(P(=O)(OC(C)C)OC(C)C)c(-c3ccccc3)cn12
inactive: [1] 17.4 µM | [2] 18.7 µM | [3] 14.6 µM | [4] 18.8 µM | [5] 11.5 µM | [6] 3.84 µM | [7] 17.7 µM | [8] 17.5 µM | [9] 16.8 µM | [10] 18.4 µM | [11] 14.6 µM | [12] 16.6 µM | [13] 18 µM | [14] 16.7 µM | [15] 16.2 µM | [16] 15.1 µM | [17] 14 µM | [18] 19.1 µM | [19] 13.6 µM

CCCCCCCCCCCCCCCCCCNc1ccn(C2OC(CO)C(OP(=O)(O)OCC(COP(=O)(O)OCC3OC(n4cc(F)c(NCCCCCCCCCCCCCCCCCC)nc4=O)CC3O)OC(=O)CCCCCCCCCCCCCCC)C2O)c(=O)n1 (stereo not given)
inactive: [1] > 100 µM | [2] > 100 µM | [3] > 100 µM | [4] > 100 µM | [5] > 100 µM | [6] > 100 µM | [7] > 100 µM | [8] > 100 µM | [9] > 100 µM | [10] > 100 µM | [11] > 100 µM | [12] > 100 µM | [13] > 100 µM | [14] > 100 µM | [15] > 100 µM | [16] > 100 µM | [17] > 100 µM | [18] > 100 µM | [19] > 100 µM

COc1ccc(C2SCC(=O)N2NC(=O)C(C)Oc2ccc(Cl)cc2Cl)cc1 (stereo not given)
inactive: [1] 31.3 µM | [2] 73.8 µM | [3] > 100 µM | [4] 23.7 µM | [5] 42.6 µM | [6] 28.4 µM | [7] 32.1 µM | [8] 23.6 µM | [9] 55.1 µM | [10] 51.2 µM | [11] 55.6 µM | [12] 31.6 µM | [13] 56.6 µM | [14] 21.1 µM | [15] 46.5 µM | [16] 35 µM | [17] 42.4 µM | [18] 64.9 µM | [19] 41.1 µM

C=C(C(=O)O[C@H]1C(=O)C2=C(C)CCC3C(=C)C(=O)O[C@@H]3C2[C@]1(C)O)C1CC[C@]2(C)CCCC(=C)[C@H]2C1 (stereo not given in full)
inactive: [1] 4.36 µM | [2] 8.77 µM | [3] 17.7 µM | [4] 5.04 µM | [5] 2.55 µM | [6] 4.25 µM | [7] 3.32 µM | [8] 5.36 µM | [9] 6.85 µM | [10] 7.62 µM | [11] 1.91 µM | [12] 8.89 µM | [13] 7.38 µM | [14] 5.08 µM | [15] 12.2 µM | [16] 13.1 µM | [17] 4.25 µM | [18] 7.35 µM | [19] 3.18 µM

COc1ccc(C[C@@H](C(=O)NCC(N)=O)N(C)C(=O)[C@@H]2CCCN2C(=O)[C@H](CC(C)C)NC(=O)C(C)NC(=O)OCc2ccccc2)cc1 (stereo not given in full) (Cbz-[ξA]LP[NMeY](Me)G-NH2)
inactive: [1] > 100 µM | [2] > 100 µM | [3] > 100 µM | [4] > 100 µM | [5] > 100 µM | [6] > 100 µM | [7] > 100 µM | [8] > 100 µM | [9] > 100 µM | [10] > 100 µM | [11] > 100 µM | [12] > 100 µM | [13] > 100 µM | [14] > 100 µM | [15] > 100 µM | [16] > 100 µM | [17] > 100 µM | [18] > 100 µM | [19] > 100 µM

O=c1ssc2c1Nc1c(ssc1=O)S2
inactive: [1] 14.8 µM | [2] 18 µM | [3] 17 µM | [4] 25.3 µM | [5] 16 µM | [6] 10.7 µM | [7] 16.4 µM | [8] 14.4 µM | [9] 14.4 µM | [10] 11.7 µM | [11] 15.1 µM | [12] 19.2 µM | [13] 19.6 µM | [14] 15 µM | [15] 15.7 µM | [16] 17.9 µM | [17] 14.6 µM | [18] 18.7 µM | [19] 5.37 µM

COc1ccc(/C(=N/O)c2ccccc2-c2nc3ccccc3c(=O)n2-c2ccc(S(=O)(=O)Nc3ncccn3)cc2)cc1C
inactive: [1] 18.4 µM | [2] 18.9 µM | [3] 24.5 µM | [4] 17.6 µM | [5] 21.8 µM | [6] 12.6 µM | [7] 13.2 µM | [8] 17.9 µM | [9] 18.1 µM | [10] 17.1 µM | [11] 10.2 µM | [12] 17.4 µM | [13] 11.6 µM | [14] 8.73 µM | [15] 12.8 µM | [16] 20.8 µM | [17] 17.1 µM | [18] 12 µM | [19] > 10 µM

Cc1cccc2c1CC1(Cc3ccccc3C1=O)C2=O (stereo not given)
inactive: [1] > 100 µM | [2] > 100 µM | [3] > 100 µM | [4] 24.7 µM | [5] > 100 µM | [6] > 100 µM | [7] > 100 µM | [8] > 100 µM | [9] > 100 µM | [10] > 100 µM | [11] > 100 µM | [12] > 100 µM | [13] > 100 µM | [14] 76.9 µM | [15] > 100 µM | [16] > 100 µM | [17] > 100 µM | [18] > 100 µM | [19] > 100 µM
